Non-standard residues stand in square brackets, D forms with d. Residues, ends and D or L forms follow the SMILES beside them. Ac5c = NC1(C(=O)O)CCCC1

Series [1] is described as follows: Human plasma half-life assay. Format: in vitro ADME. The note with it: 37° C., LC-MS, read-out: Human Plasma T½ (converted). Here is the method: (§1) B. Human and Rat Plasma Half-Life Assay
(§2) 50 μL was removed at various times, like at 0, 1, 2, 3, 4, 8, 24, 32, 48, 56, 72 hours, mixed with 5 μL formic acid and 150 μL acetonitrile in a microcentrifuge tube, vertexed, and centrifuged for 10 minutes at 10K rpm. The supernatant was transferred to an injection vial and analyzed by LC-MS. The LC-MS system consisted of an API4000 mass spectrometer with an ESI probe. Positive ion mode and full scan detection were used. HPLC separation was carried out on a Luna 3μ C8 (2), 2×30 mm column with a gradient from 90% A to 90% B in 10 minutes at a flow rate of 0.3 ml/min. Buffer A was 1% formic acid in water and buffer B was 1% formic acid acetonitrile.

Series [2] can be described thus: Rat plasma half-life assay. The note with it: 37° C., LC-MS, read-out: Rat Plasma T½ (converted). The class given is in vitro ADME. Here is the method:
as §1, §2

Consider `CCCC[C@H](NC(=O)[C@H](C)NC(=O)[C@@H](NC(=O)C1(NC(=O)[C@H](Cc2ccc(O)cc2)NC(=O)[C@H](CC(=O)O)NC(=O)[C@H](CO)NC(=O)[C@@H](NC(=O)[C@H](Cc2ccccc2)NC(=O)[C@@H](NC(=O)CNC(=O)[C@H](CCC(=O)O)NC(=O)[C@H](C)NC(=O)[C@@H](N)Cc2ccc(O)cc2)[C@@H](C)O)[C@@H](C)CC)CCCC1)[C@@H](C)CC)C(=O)N[C@@H](CC(=O)O)C(=O)N[C@@H](CCCCN)C(=O)N[C@H](C(=O)N[C@@H](Cc1c[nH]cn1)C(=O)N[C@@H](CCC(N)=O)C(=O)N[C@@H](CCC(N)=O)C(=O)N[C@@H](CC(=O)O)C(=O)N[C@@H](Cc1ccccc1)C(=O)N[C@H](C(=O)N[C@@H](CC(N)=O)C(=O)N[C@@H](Cc1c[nH]c2ccccc12)C(=O)N[C@@H](CC(C)C)C(=O)N[C@@H](CC(C)C)C(=O)N[C@@H](C)C(=O)N[C@@H](CCC(N)=O)C(=O)N[C@@H](CCCCN)C(=O)NCC(=O)N[C@@H](CCCCN)C(=O)N[C@@H](CCCCN)C(=O)N[C@@H](CC(N)=O)C(=O)N[C@@H](CC(=O)O)C(=O)N[C@@H](Cc1c[nH]c2ccccc12)C(=O)N[C@@H](CCCCN)C(=O)N[C@@H](Cc1c[nH]cn1)C(=O)N[C@@H](CC(N)=O)C(=O)N[C@H](C(=O)N[C@H](C(=O)N[C@@H](CCC(N)=O)C(=O)N[C@@H](Cc1c[nH]cn1)C(=O)O)[C@@H](C)O)[C@@H](C)CC)C(C)C)[C@@H](C)CC` [Example 21, (A5c^11, Nle^14, His^43)hGIP(1-43)-OH], for which the half-life at 0.1 mg/ml in series [1] is 11.1 h; in series [2] it was 2.8 h.
For the compound `CC[C@H](C)[C@H](NC(=O)[C@H](CCCCN)NC(=O)[C@H](CC(=O)O)NC(=O)[C@H](CCSC)NC(=O)[C@H](C)NC(=O)[C@@H](NC(=O)C1(NC(=O)[C@H](Cc2ccc(O)cc2)NC(=O)[C@H](CC(=O)O)NC(=O)[C@H](CO)NC(=O)[C@@H](NC(=O)[C@H](Cc2ccccc2)NC(=O)[C@@H](NC(=O)CNC(=O)[C@H](CCC(=O)O)NC(=O)[C@H](C)NC(=O)[C@@H](N)Cc2ccc(O)cc2)[C@@H](C)O)[C@@H](C)CC)CCCC1)[C@@H](C)CC)C(=O)N[C@@H](Cc1c[nH]cn1)C(=O)N[C@@H](CCC(N)=O)C(=O)N[C@@H](CCC(N)=O)C(=O)N[C@@H](CC(=O)O)C(=O)N[C@@H](Cc1ccccc1)C(=O)N[C@H](C(=O)N[C@@H](CC(N)=O)C(=O)N[C@@H](Cc1c[nH]c2ccccc12)C(=O)N[C@@H](CC(C)C)C(=O)N[C@@H](CC(C)C)C(=O)N[C@@H](C)C(=O)N[C@@H](CCC(N)=O)C(=O)N[C@@H](CCCCN)C(N)=O)C(C)C` [Example 28, (A5c^11)hGIP(1-30)-NH2] (H-YAEGTFISDY[Ac5c]IAMDKIHQQDFVNWLLAQK-NH2; N-terminus assumed), the half-life at 0.1 mg/ml in series [1] is 6.6 h; in series [2], 2.4 h.
In the same order, the values of `CC[C@H](C)[C@H](NC(=O)[C@H](CCCCN)NC(=O)[C@H](CC(=O)O)NC(=O)[C@H](CCSC)NC(=O)[C@H](C)NC(=O)[C@@H](NC(=O)C1(NC(=O)[C@H](Cc2ccc(O)cc2)NC(=O)[C@H](CC(=O)O)NC(=O)[C@H](CO)NC(=O)[C@@H](NC(=O)[C@H](Cc2ccccc2)NC(=O)[C@@H](NC(=O)CNC(=O)[C@H](CCC(=O)O)NC(=O)[C@H](C)NC(=O)[C@@H](N)Cc2ccc(O)cc2)[C@@H](C)O)[C@@H](C)CC)CCCC1)[C@@H](C)CC)C(=O)N[C@@H](Cc1c[nH]cn1)C(=O)N[C@@H](CCC(N)=O)C(=O)N[C@@H](CCC(N)=O)C(=O)N[C@@H](CC(=O)O)C(=O)N[C@@H](Cc1ccccc1)C(=O)N[C@H](C(=O)N[C@@H](CC(N)=O)C(=O)N[C@@H](Cc1c[nH]c2ccccc12)C(=O)N[C@@H](CC(C)C)C(=O)N[C@@H](CC(C)C)C(=O)N[C@@H](C)C(=O)N[C@@H](CCC(N)=O)C(=O)N[C@@H](CCCCN)C(=O)N[C@@H](Cc1c[nH]cn1)C(N)=O)C(C)C` [Example 29, (A5c^11, His^31)hGIP(1-31)-NH2] (H-YAEGTFISDY[Ac5c]IAMDKIHQQDFVNWLLAQKH-NH2; N-terminus assumed) are 7.2 h and 7.5 h.
In the same order, the values of `CC[C@H](C)[C@H](NC(=O)[C@H](CCCCN)NC(=O)[C@H](CC(=O)O)NC(=O)C1(NC(=O)[C@H](C)NC(=O)[C@@H](NC(=O)C2(NC(=O)[C@H](Cc3ccc(O)cc3)NC(=O)[C@H](CC(=O)O)NC(=O)[C@H](CO)NC(=O)[C@@H](NC(=O)[C@H](Cc3ccccc3)NC(=O)[C@@H](NC(=O)CNC(=O)[C@H](CCC(=O)O)NC(=O)[C@H](C)NC(=O)[C@@H](N)Cc3ccc(O)cc3)[C@@H](C)O)[C@@H](C)CC)CCCC2)[C@@H](C)CC)CCCC1)C(=O)N[C@@H](Cc1c[nH]cn1)C(=O)N[C@@H](CCC(N)=O)C(=O)N[C@@H](CCC(N)=O)C(=O)N[C@@H](CC(=O)O)C(=O)N[C@@H](Cc1ccccc1)C(=O)N[C@H](C(=O)N[C@@H](CC(N)=O)C(=O)N[C@@H](Cc1c[nH]c2ccccc12)C(=O)N[C@@H](CC(C)C)C(=O)N[C@@H](CC(C)C)C(=O)N[C@@H](C)C(=O)N[C@@H](CCC(N)=O)C(=O)N[C@@H](CCCCN)C(N)=O)C(C)C` [Example 30, (A5c^11, 14)hGIP(1-30)-NH2] (H-YAEGTFISDY[Ac5c]IA[Ac5c]DKIHQQDFVNWLLAQK-NH2; N-terminus assumed) are 6.2 h and 13.6 h.
`CC[C@H](C)[C@H](NC(=O)[C@H](CCCCN)NC(=O)[C@H](CC(=O)O)NC(=O)[C@H](CCSC)NC(=O)[C@H](C)NC(=O)[C@@H](NC(=O)C1(NC(=O)[C@H](Cc2ccc(O)cc2)NC(=O)[C@H](CC(=O)O)NC(=O)[C@H](CO)NC(=O)[C@@H](NC(=O)[C@H](Cc2ccccc2)NC(=O)[C@@H](NC(=O)CNC(=O)[C@H](CCC(=O)O)NC(=O)[C@H](C)NC(=O)[C@@H](N)Cc2ccc(O)cc2)[C@@H](C)O)[C@@H](C)CC)CCCC1)[C@@H](C)CC)C(=O)N[C@@H](Cc1c[nH]cn1)C(=O)N[C@@H](CCC(N)=O)C(=O)N[C@@H](CCC(N)=O)C(=O)N[C@@H](CC(=O)O)C(=O)N[C@@H](Cc1ccccc1)C(=O)N[C@H](C(=O)N[C@@H](CC(N)=O)C(=O)N[C@@H](Cc1c[nH]c2ccccc12)C(=O)N[C@@H](CC(C)C)C(=O)N[C@@H](CC(C)C)C(=O)N[C@@H](C)C(=O)N[C@@H](CCC(N)=O)C(=O)N[C@@H](CCCCN)C(=O)NCC(=O)N[C@@H](CCCCN)C(=O)N[C@@H](CS)C(=O)N[C@@H](CC(N)=O)C(=O)N[C@@H](CC(=O)O)C(=O)N[C@@H](Cc1c[nH]c2ccccc12)C(=O)N[C@@H](CCCCN)C(=O)N[C@@H](Cc1c[nH]cn1)C(=O)N[C@@H](CC(N)=O)C(=O)N[C@H](C(=O)NC1(C(=O)N[C@@H](CCC(N)=O)C(N)=O)CCCC1)[C@@H](C)CC)C(C)C` [Example 32, (A5c^11, 41, Cys^33)hGIP(1-42)-NH2]: the half-life at 0.1 mg/ml was 11.5 h in series [1] and 8.8 h in series [2].
For the compound `CCCCCCCCCCCC(=O)NCCC[C@H](NC(=O)CNC(=O)[C@H](CCCCN)NC(=O)[C@H](CCC(N)=O)NC(=O)[C@H](C)NC(=O)[C@H](CC(C)C)NC(=O)[C@H](CC(C)C)NC(=O)[C@H](Cc1c[nH]c2ccccc12)NC(=O)[C@H](CC(N)=O)NC(=O)[C@@H](NC(=O)[C@H](Cc1ccccc1)NC(=O)[C@H](CC(=O)O)NC(=O)[C@H](CCC(N)=O)NC(=O)[C@H](CCC(N)=O)NC(=O)[C@H](Cc1c[nH]cn1)NC(=O)[C@@H](NC(=O)[C@H](CCCCN)NC(=O)[C@H](CC(=O)O)NC(=O)[C@H](CCSC)NC(=O)[C@H](C)NC(=O)[C@@H](NC(=O)C1(NC(=O)[C@H](Cc2ccc(O)cc2)NC(=O)[C@H](CC(=O)O)NC(=O)[C@H](CO)NC(=O)[C@@H](NC(=O)[C@H](Cc2ccccc2)NC(=O)[C@@H](NC(=O)CNC(=O)[C@H](CCC(=O)O)NC(=O)[C@H](C)NC(=O)[C@@H](N)Cc2ccc(O)cc2)[C@@H](C)O)[C@@H](C)CC)CCCC1)[C@@H](C)CC)[C@@H](C)CC)C(C)C)C(=O)N[C@@H](CCCCN)C(=O)N[C@@H](CC(N)=O)C(=O)N[C@@H](CC(=O)O)C(=O)N[C@@H](Cc1c[nH]c2ccccc12)C(=O)N[C@@H](CCCCN)C(=O)N[C@@H](Cc1c[nH]cn1)C(=O)N[C@@H](CC(N)=O)C(=O)N[C@H](C(=O)N[C@H](C(=O)N[C@@H](CCC(N)=O)C(=O)N[C@@H](Cc1c[nH]cn1)C(=O)O)[C@@H](C)O)[C@@H](C)CC` [Example 34, [A5c^11, Orn^32(N—C(O)—(CH2)10—CH3), His^43]hGIP(1-43)-OH], the half-life at 0.1 mg/ml in series [1] is 7.5 h; in series [2], 20.1 h.
As for `CCCCCCCCCCCC(=O)NCCC[C@H](NC(=O)[C@H](CCCCN)NC(=O)CNC(=O)[C@H](CCCCN)NC(=O)[C@H](CCC(N)=O)NC(=O)[C@H](C)NC(=O)[C@H](CC(C)C)NC(=O)[C@H](CC(C)C)NC(=O)[C@H](Cc1c[nH]c2ccccc12)NC(=O)[C@H](CC(N)=O)NC(=O)[C@@H](NC(=O)[C@H](Cc1ccccc1)NC(=O)[C@H](CC(=O)O)NC(=O)[C@H](CCC(N)=O)NC(=O)[C@H](CCC(N)=O)NC(=O)[C@H](Cc1c[nH]cn1)NC(=O)[C@@H](NC(=O)[C@H](CCCCN)NC(=O)[C@H](CC(=O)O)NC(=O)[C@H](CCSC)NC(=O)[C@H](C)NC(=O)[C@@H](NC(=O)C1(NC(=O)[C@H](Cc2ccc(O)cc2)NC(=O)[C@H](CC(=O)O)NC(=O)[C@H](CO)NC(=O)[C@@H](NC(=O)[C@H](Cc2ccccc2)NC(=O)[C@@H](NC(=O)CNC(=O)[C@H](CCC(=O)O)NC(=O)[C@H](C)NC(=O)[C@@H](N)Cc2ccc(O)cc2)[C@@H](C)O)[C@@H](C)CC)CCCC1)[C@@H](C)CC)[C@@H](C)CC)C(C)C)C(=O)N[C@@H](CC(N)=O)C(=O)N[C@@H](CC(=O)O)C(=O)N[C@@H](Cc1c[nH]c2ccccc12)C(=O)N[C@@H](CCCCN)C(=O)N[C@@H](Cc1c[nH]cn1)C(=O)N[C@@H](CC(N)=O)C(=O)N[C@H](C(=O)N[C@H](C(=O)N[C@@H](CCC(N)=O)C(=O)N[C@@H](Cc1c[nH]cn1)C(=O)O)[C@@H](C)O)[C@@H](C)CC` [Example 35, [A5c^11, Orn^33(N—C(O)—(CH2)10—CH3), His^43]hGIP(1-43)-OH], the half-life at 0.1 mg/ml in series [1] is 9.5 h; in series [2] it was 17 h.

Source of the values: patent publication US9072703B2 (Ipsen Pharma S.A.S., priority 2008, dated 2015).
